Legend:
[1] = test system: human internal mammary artery smooth muscle cells (IMA SMC); assay: Inhibition of cell proliferation and recovery, human IMA SMC; type: cell-based
Text: Smooth muscle cells (SMC) were obtained under aseptic conditions from porcine abdominal aortas, and human internal mammary arteries (IMA). Specimens from the operating room were transferred on ice to the tissue culture room. Each artery was cut open and the endothelial surface mechanically scraped. The vessels were then cut into 2 mm^2 fragments which were placed in culture dishes with Dulbecco's modified Eagle's medium (DMEM) supplemented with 15% (v/v) fetal calf serum (FCS), 100 u/ml penicillin, 100 μg/ml streptomycin, and […] L-glutamine. The tissue fragments were then placed in an incubator at 37° C. under 9% CO2 atmosphere until SMC outgrowth was detected (typically within 3-7 days). […] For experiments testing the effect of tyrphostins on growth inhibition and recovery (see below), SMC from passages 1-3 were replated in 15 mm wells pretreated with 3 μg/cm^2 fibronectin (Biological Industries, Kibbutz Beit Haemek, Israel) at 15,000 cells/well.
Inhibition of cell proliferation and recovery: Monolayer cell growth inhibition and recovery experiments were repeated 3 or 4 times. Each experiment was performed in triplicate. Approximately 15,000 cells (SMC or EC) in 1 ml of culture medium supplemented with 15% FCS were seeded on day 0 in 15 mm-wells precoated with fibronectin. Cultures were treated with a tyrphostin (10 μM) dissolved in 0.1% DMSO on days 1 and 3. On day 6, cultures were washed and the cells allowed to recover. Typically cells were counted on days 3 and 5 for inhibition, and on days 7, 10 and 15 for recovery, other schedules were also employed as reported below. The medium supplemented with serum (M-199 with ECGS for EC, and DMEM for SMC) was changed every other day throughout the experiment.
FIG. 9 presents the maximal inhibitory and recovery effects on human IMA SMC growth inflicted by 10 or 25 μM of AG1851 and AG1295. Cells were grown in the presence of the specified tyrphostins and were counted after seven days in culture. On day 7 the cultures were washed and the cells allowed to recover. Seven days later they were counted for recovery. The bar graph show the maximal inhibition and the recovery in each experiment and for controls.

[2] = test system: PDGFR; assay: PDGFR autophosphorylation, isolated membranes or intact Swiss 3T3 cells; type: biochemical; conditions: read-out: IC50 (50% inhibition of phosphorylation) PDGFR
Description: Assay of receptor autophosphorylation in intact 3T3 cells: Confluent Swiss 3T3 cells in 24-well plates (Nunc) were incubated for 20-24 hours in serum-free DMEM. Subsequently, tyrphostins were added at concentrations ranging from 0 to 100 μM (final DMSO concentration, 0.5%) and the incubation was continued for 6-8 hours. The cells were then stimulated with 100 ng/ml PDGF-BB for 5 min at room temperature or 600 ng/ml EGF for 2.5 min on ice. The growth factor treatment was terminated by washing twice with ice-cold PBS and the cells were scraped off the wells in 60 μl lysis buffer containing 20 mM Hepes (pH 7.4), 150 mM NaCl, 1% Triton X-100, 10 mM sodium pyrophosphate, 50 mM NaF, 2 mM sodium-o-vanadate, 20 μm zinc acetate, 10 nM EDTA, 2 mM [ethylenebis(oxyethilenenitrilo)] tetraacetic acid, 1 mM phenylmethylsulfonyl fluoride, and 5 μg/ml leupeptin.
The cell lysates were clarified by centrifugation (cooled microfuge, 17,000 rpm, 15 min) and analyzed by SDS-PAGE (6.5% gels) and immunoblotting with anti-phosphotyrosine antibodies (either PY 20, ICN, and subsequently a peroxidase-coupled secondary antibody, or RC20-peroxidase conjugate, Affinity, Nottingham, United Kingdom). The blots were developed with a chemiluminescence detection system (Western Light, Tropix, or ECL, Amersham). In some experiments PDGF receptors were immunoprecipitated with PDGF-R3 or DIG-1 antibodies as described prior to the analysis by immunoblotting with anti-phosphotyrosine antibodies.
Membrane autophosphorylation assays: Membranes were prepared from confluent cultures of Swiss 3T3 cells as described. For measuring receptor autophosphorylation, 10 μg membrane protein per assay were incubated for 20 min on ice in the presence of 1.2 μg/ml EGF or 2 μg/ml PDGF, or both; 50 mM Hepes (pH 7.5); and 3 mm MnCl2 (final concentrations) in a volume of 45 μl. […] For quantification of radioactivity in electrophoresis gels, a Phospho-Imager (Molecular Dynamics, Fuji, or Bio-Rad) was used according to the instructions of the manufacturers. […]

[3] = test system: porcine endothelial cells (EC); assay: Inhibition of cell proliferation and recovery, porcine EC; type: cell-based; conditions: Sus scrofa, Endothelial cell; FIG. 8 experiment; 10 μM; read-out: maximal inhibitory effect on porcine EC proliferation
Text: Endothelial cells (EC) were isolated from porcine carotid arteries. Using aseptic procedure, both common carotid arteries were isolated, and the distal end of each artery was cannulated through an arteriotomy and ligated. The arteries were then perfused with phosphate buffered saline (PBS) and the proximal end ligated isolating a 5-7 cm long blood-free portion of the artery. The isolated portion of each artery was filled with PBS containing calcium and magnesium and 0.1% collagenase (Boehringer Manneheim, Germany). The segments were excised and incubated for 10 min at 37° C. in sterile bottles containing PBS. […] Cells were seeded on fibronectin-coated dishes at a seeding density of 15,000 cells/well and incubated at 37° C. in 9% CO2. ECGS (25 μg/ml) was added every other day until confluence was observed, typically within 6-8 days.
Inhibition of cell proliferation and recovery: Monolayer cell growth inhibition and recovery experiments were repeated 3 or 4 times. Each experiment was performed in triplicate. […] Cultures were treated with a tyrphostin (10 μM) dissolved in 0.1% DMSO on days 1 and 3. On day 6, cultures were washed and the cells allowed to recover. Typically cells were counted on days 3 and 5 for inhibition, and on days 7, 10 and 15 for recovery, other schedules were also employed as reported below.

Compound: Cc1nc2cc3nc(-c4ccccc4)cnc3cc2n1C [AG1851]
- reversibility of the effect on IMA SMC upon removal of the tyrphostin ([1]; 25 μM): completely reversible
- inhibition at 25 µM ([1]; Homo sapiens, 120 h, read-out: mean reduction / inhibition of IMA SMC proliferation compared to untreated or DMSO-treated cells): 54%
- IC50 [2]: 5 µM

Compound: Cc1nc2cc3nc(-c4cccs4)cnc3cc2n1C [AG1992]
- inhibition at 10 µM [3]: 52%
- IC50 [2]: 1 µM
